Literature values as cited in patent US5643912A, “Pyrazinoic acid esters as anti-mycobacterium avium agents” (The Research Foundation of State University of NY, priority 1996, dated 1997).

Test system: Mycobacterium (M.) tuberculosis
Conditions: cited from earlier work

In the case of `NC(=O)c1cnccn1` [pyrazinamide], the resistance development is given as “resistance develops quickly”.
